Assay results as given in patent EP4789666A1, “RNA M6A REGULATOR COMPOSITION, PREPARATION METHOD THEREFOR, AND USE THEREOF” (SHANGHAI MERNA THERAPEUTICS CO. LTD, priority 2023, dated 2025).
Read-outs that look alike come from different tables or passages of the source.

Assays:
[1] = Stability test of binary mixtures of the compound of formula (I) and penetration enhancers; format: physicochemical; conditions: binary mixture 10:1, 40°C/75%RH
Procedure: Different types of penetration enhancers and the compound of formula (I) were mixed at a weight ratio of 10:1 to carry out a stability test under accelerated conditions of 40°C/75%RH. Table 15: Stability test of binary mixtures of the compound of formula (I) and penetration enhancers

[2] = Pharmacokinetic study after single topical administration of ointment to the skin of Bama miniature pigs (LC-MS/MS); format: in vivo; conditions: pig, 3% suspension ointment, 20 mg/cm^2, mean
Procedure: 2 Bama miniature pigs respectively received an ointment containing the compound of formula (I) by single topical application to the dorsal and abdominal skin at 20 mg/cm^2 (3% suspension ointment), with a total application area of 6.8% of a body surface area, and a ratio of application areas between the dorsal and abdominal skin being approximately 1:1. The plasma concentration and skin tissue homogenate concentration of the compound of formula (I) were determined by an LC-MS/MS method.

[3] = Pharmacokinetic study after single topical administration of ointment to the skin of SD rats (LC-MS/MS); format: in vivo; conditions: rat, 20 mg/cm^2, SD rats, 20 mg/cm^2, 20 cm^2, mean
Procedure: 6 SD rats were divided into two groups, with 3 rats per group, where one group received an ointment containing the compound of formula (I) by single topical application to the dorsal skin at 20 mg/cm^2 (3% suspension ointment), with an application area of 20 cm^2, and the other group received an ointment containing the compound of formula (I) by single topical application to the dorsal skin at 20 mg/cm^2 (10% suspension ointment), with an application area of 20 cm^2. The plasma concentration and dorsal skin tissue homogenate concentration of the compound of formula (I) were determined by an LC-MS/MS method.

[4] = tested on: rat models with hand-foot skin reaction; test: Rat models with hand-foot skin reaction, topical ointment (incidence rate, histology, immunohistochemistry); format: in vivo, SD rats; conditions: for Incidence rate, left paw: once daily 30 days; for Incidence rate, right paw: right paw with blank matrix ointment (self-control)
Procedure: After adaptive feeding for one week, SD rats (with a body weight of approximately 200 g) were randomly divided into groups with balanced body weight, with 12 rats in each group. Modeling drugs (including sorafenib, erlotinib, afatinib, and osimertinib) were respectively dissolved in a solution containing 5% of DMSO, 45% of PEG400, and 50% of H2O, and the modeling drugs were diluted to required concentrations and then administered once daily by gavage at doses shown in Table 3. After administration by gavage for 1 hour, 0.05 g of ointments containing different mass proportions of test compounds were evenly applied to left paws of the rats, a blank matrix ointment was applied to right paws of the rats to serve as a self-control, and no ointment was applied to the rats in a blank control group. After drug application, four limbs were continuously immobilized for 2 hours, then wiped with clean water to remove the residual drugs, removed from immobilization, and restored to free movement. The modeling drugs, the blank matrix ointment, and the ointments containing the test compounds were all administered once daily. After continuous administration for 30 days, the rats were euthanized, and paw plantar skin tissues were collected, fixed in 10% neutral formalin, […]. The ointments for the test compounds were prepared by mixing the compounds, white beeswax, white petrolatum, and light liquid paraffin in specific ratios (weight ratios of 3 ointments were respectively 1:18:58:23, 3:18:57:22, and 10:20:40:30). The blank matrix ointment was prepared by mixing white beeswax, white petrolatum, and light liquid paraffin in a specific ratio (weight ratio of 18:60:22).
Tissue staining: After dewaxing and rehydration, the paw plantar skin tissue sections of the above rats were stained in a hematoxylin solution for several minutes, cleaned, and placed in 1% acid alcohol for soaking until the sections faded to light blue-red. After cleaning with running water for 5 minutes, the sections were stained with eosin for 2-3 minutes, cleaned to remove excess dyes, dehydrated, then permeabilized by adding xylene for several minutes, and sealed and fixed with a neutral resin. The stratum corneum was observed under an optical microscope, and the thickness of the epidermal stratum corneum was measured using Dmetrix software.
Immunohistochemical staining: After dewaxing and hydration, the paw plantar skin tissue sections of the above rats were incubated with 3% H2O2 at room temperature for 30 minutes and blocked with 10% goat serum for 30 minutes after antigen retrieval. A KRT1 antibody (Abcam, ab93652) and a Loricrin antibody (Abcam, ab183646) were added dropwise, the sections were incubated overnight at 4°C, and an HRP secondary antibody (ZSGB-BIO, PV-6001) and a DAB kit (ZSG-BIO, ZLI9017) were added for color development. The sections were re-stained with hematoxylin, cleaned, and sealed and fixed with a neutral resin, and the expression amounts of KRT1 and Loricrin were observed under an optical microscope.
An incidence rate calculation method involves a proportion of animals in each group meeting the above criteria for determining successful modeling, that is, incidence rate = (number of successfully modeled rats/total number of rats in the group)*100%. […]

[5] = Pharmacokinetic study after single topical administration of ointment to the skin of CD-1 mice (LC-MS/MS); format: in vivo; conditions: 3% suspension ointment
Procedure: 6 CD-1 mice were divided into 2 groups, with 3 mice per group, and then respectively received an ointment containing the compound of formula (I) by single topical administration to the backs at 1 mg/cm^2 (3% suspension ointment) with an application area of 1 cm^2. The plasma concentration and skin tissue homogenate concentration of the compound of formula (I) were determined by an LC-MS/MS method.

[6] = Afatinib 50 mg/kg model, 1% ointment on left paw
[7] = Afatinib 50 mg/kg model, 3% ointment on left paw
[8] = Afatinib 50 mg/kg model, 10% ointment on left paw
[9] = Erlotinib 70 mg/kg model, 1% ointment on left paw
[10] = Erlotinib 70 mg/kg model, 3% ointment on left paw
[11] = Erlotinib 70 mg/kg model, 10% ointment on left paw
[12] = Osimertinib 60 mg/kg model, 1% ointment on left paw
[13] = Osimertinib 60 mg/kg model, 3% ointment on left paw
[14] = Osimertinib 60 mg/kg model, 10% ointment on left paw
[15] = Sorafenib 100 mg/kg model, 1% ointment on left paw
[16] = Sorafenib 100 mg/kg model, 3% ointment on left paw
[17] = Sorafenib 100 mg/kg model, 10% ointment on left paw
[18] = dorsal skin tissue homogenate, 1 mg/cm^2, mean
[19] = mouse, topical or ocular, plasma, 1 mg/cm^2, mean

For NC(=O)[C@H]1CCCc2c1[nH]c1ccc(Cl)cc21 [Compound of formula (I), (S)-6-chloro-2,3,4,9-tetrahydro-1H-carbazole-carboxamide], the “stability in diisopropyl oxalate” value [1] was “unstable”, the “stability in propylene carbonate” value [1] was “unstable” and the concentration at 24 h ([2]; read-out: Drug concentration in dorsal dermis skin tissues at 24 h) was 88300 ng/g. The concentration at 24 h ([2]; abdominal skin tissue, read-out: Drug concentration in abdominal skin tissues at 24 h) was 111000 ng/g, the concentration at 24 h ([2]; plasma, read-out: Plasma drug concentration at 24 h) was 17.7 ng/mL and the AUC(0-t) ([2]; topical or ocular, plasma) was 304 ng·h/mL. It also gave a Cmax ([2]; topical or ocular, plasma) of 21.6 ng/mL, an MRT inf ([2]; topical or ocular, plasma) of 15.2 h and a Tmax ([2]; topical or ocular, plasma) of 16 h. The concentration at 24 h ([3]; dorsal skin tissue homogenate, dorsal skin homogenate, 3% suspension ointment, read-out: Drug concentration in skin tissues at 24 h) was 161000 ng/g, the concentration at 24 h ([3]; dorsal skin tissue homogenate, dorsal skin homogenate, 10% suspension ointment, read-out: Drug concentration in skin tissues at 24 h) was 800000 ng/g and the concentration at 24 h ([3]; plasma, 3% suspension ointment, read-out: Plasma drug concentration at 24 h) was 3.21 ng/mL. For the same compound, the concentration at 24 h ([3]; plasma, 10% suspension ointment, read-out: Plasma drug concentration at 24 h) was 17.3 ng/mL, the “Incidence rate, left paw” value [4, 6] was 3/12 (25%) and the “Incidence rate, left paw” value [4, 7] was 2/12 (17%). The “Incidence rate, left paw” value [4, 8] was 0/12 (0%), the “Incidence rate, right paw” value [4, 6] was 9/12 (75%) and the “Incidence rate, right paw” value [4, 7] was 4/12 (33%). For the same compound, the “Incidence rate, right paw” value [4, 8] was 3/12 (25%), the “Incidence rate, left paw” value [4, 9] was 3/12 (25%) and the “Incidence rate, left paw” value [4, 10] was 2/12 (17%). The “Incidence rate, left paw” value [4, 11] was 1/12 (8%), the “Incidence rate, right paw” value [4, 9] was 10/12 (83%) and the “Incidence rate, right paw” value [4, 10] was 5/12 (42%). For the same compound, the “Incidence rate, right paw” value [4, 11] was 4/12 (33%), the “Incidence rate, left paw” value [4, 12] was 2/12 (17%) and the “Incidence rate, left paw” value [4, 13] was 2/12 (17%). For the same compound, the “Incidence rate, left paw” value [4, 14] was 0/12 (0%), the “Incidence rate, right paw” value [4, 12] was 8/12 (67%) and the “Incidence rate, right paw” value [4, 13] was 4/12 (33%). The “Incidence rate, right paw” value [4, 14] was 3/12 (25%), the “Incidence rate, left paw” value [4, 15] was 2/12 (17%) and the “Incidence rate, left paw” value [4, 16] was 2/12 (17%). For the same compound, the “Incidence rate, left paw” value [4, 17] was 0/12 (0%), the “Incidence rate, right paw” value [4, 15] was 9/12 (75%) and the “Incidence rate, right paw” value [4, 16] was 4/12 (33%). For the same compound, the “Incidence rate, right paw” value [4, 17] was 4/12 (33%), the “Plasma drug concentration at 24 h” value ([5]; 1 mg/cm^2) was “Below a lower detection limit” and the “Drug concentration in skin tissues at 4 h” value [5, 18] was 33,033 ng/g. The “Drug concentration in skin tissues at 24 h” value [5, 18] was 7,907 ng/g, the concentration at 4 h ([5]; mouse, dorsal skin tissue homogenate, 1 mg/cm^2, mean, read-out: Drug concentration in skin tissues at 4 h) was 33000 ng/g and the concentration at 24 h ([5]; mouse, dorsal skin tissue homogenate, 1 mg/cm^2, mean, read-out: Drug concentration in skin tissues at 24 h) was 7910 ng/g. It also gave a concentration at 4 h ([5]; mouse, plasma, 1 mg/cm^2, mean, read-out: Plasma drug concentration at 4 h) of 6.15 ng/mL, a Cmax ([5]; mouse, topical or ocular, plasma, 1 mg/cm^2, 1 cm^2, mean) of 14 ng/mL and an AUC(0-inf) [5, 19] of 57.5 ng·h/mL. The AUC(0-t) [5, 19] was 40.7 ng·h/mL, the MRT inf [5, 19] was 5.54 h and the Tmax [5, 19] was 1.67 h. For the same compound, the half-life [5, 19] was 5.15 h, the “AUC Extr” value ([5]; plasma, 1 mg/cm^2, mean) was 18.9% and the AUCInf/Dose ([5]; plasma, 1 mg/cm^2, mean) was 1.63 kg·ng·h/mL/mg.
